Results as given in the NIST ThermoML archive (doi:10.1016/j.fluid.2016.08.002).
Numbers after ± are expanded uncertainties.

Test: xn = mol fraction of the nth substance listed
Settings: Gas, Vibrating tube method

S [hydrogen sulfide] + C
Settings	mass density [kg/m3]
253.4 K, 9215 kPa, x2 = 0.8685	128.92 ± 1.6
253.4 K, 9484 kPa, x2 = 0.8685	135.48 ± 1.7
253.41 K, 10167 kPa, x2 = 0.8685	150.17 ± 1.9
253.42 K, 10405 kPa, x2 = 0.8685	155.11 ± 2
253.42 K, 10879 kPa, x2 = 0.8685	164.94 ± 2.1
253.42 K, 11161 kPa, x2 = 0.8685	170.62 ± 2.1
253.43 K, 9711 kPa, x2 = 0.8685	140.67 ± 1.8
253.43 K, 9944 kPa, x2 = 0.8685	145.46 ± 1.9
253.44 K, 10674 kPa, x2 = 0.8685	160.71 ± 2.1
253.45 K, 11408 kPa, x2 = 0.8685	175.6 ± 2.2
253.45 K, 12503 kPa, x2 = 0.8685	195.9 ± 2.3
253.46 K, 11691 kPa, x2 = 0.8685	181.06 ± 2.2
253.46 K, 11951 kPa, x2 = 0.8685	186.09 ± 2.2
253.46 K, 12221 kPa, x2 = 0.8685	190.99 ± 2.2
253.46 K, 12710 kPa, x2 = 0.8685	199.55 ± 2.3
253.47 K, 13026 kPa, x2 = 0.8685	204.72 ± 2.4
253.48 K, 13361 kPa, x2 = 0.8685	209.99 ± 2.4
253.49 K, 13557 kPa, x2 = 0.8685	213.18 ± 2.4
253.5 K, 13904 kPa, x2 = 0.8685	217.77 ± 2.5
253.53 K, 14217 kPa, x2 = 0.8685	222.31 ± 2.5
253.53 K, 14605 kPa, x2 = 0.8685	227.86 ± 2.5
253.53 K, 27036 kPa, x2 = 0.8685	316.4 ± 1.3
253.54 K, 15328 kPa, x2 = 0.8685	236.23 ± 2.7
253.56 K, 16209 kPa, x2 = 0.8685	246.09 ± 2.8
253.56 K, 23487 kPa, x2 = 0.8685	300.68 ± 1.6
253.57 K, 26154 kPa, x2 = 0.8685	313.25 ± 1.3
253.58 K, 16612 kPa, x2 = 0.8685	250.04 ± 2.8
253.59 K, 17129 kPa, x2 = 0.8685	255.23 ± 2.7
253.6 K, 17589 kPa, x2 = 0.8685	259.35 ± 2.6
253.61 K, 18036 kPa, x2 = 0.8685	263.28 ± 2.5
253.61 K, 18480 kPa, x2 = 0.8685	267.15 ± 2.4
253.62 K, 18822 kPa, x2 = 0.8685	269.8 ± 2.3
253.63 K, 19390 kPa, x2 = 0.8685	274.47 ± 2.2
253.64 K, 19853 kPa, x2 = 0.8685	277.53 ± 2.1
253.66 K, 21081 kPa, x2 = 0.8685	286.3 ± 1.9
253.66 K, 21605 kPa, x2 = 0.8685	289.87 ± 1.8
253.67 K, 22087 kPa, x2 = 0.8685	292.82 ± 1.7
253.68 K, 22512 kPa, x2 = 0.8685	295.31 ± 1.7
253.68 K, 22918 kPa, x2 = 0.8685	297.52 ± 1.6
253.72 K, 26573 kPa, x2 = 0.8685	314.9 ± 1.3
272.97 K, 448 kPa, x2 = 0.714	4.32 ± 0.45
272.98 K, 925 kPa, x2 = 0.714	9.1 ± 0.51
272.98 K, 1959 kPa, x2 = 0.714	21.08 ± 0.65
272.99 K, 1499 kPa, x2 = 0.714	15.62 ± 0.59
272.99 K, 2470 kPa, x2 = 0.714	27.39 ± 0.71
272.99 K, 15974 kPa, x2 = 0.714	304.94 ± 2.5
272.99 K, 16531 kPa, x2 = 0.714	310.78 ± 2.5
273 K, 5009 kPa, x2 = 0.714	66.37 ± 0.99
273 K, 13055 kPa, x2 = 0.714	265.48 ± 2.3
273 K, 13551 kPa, x2 = 0.714	273.7 ± 2.3
273 K, 14019 kPa, x2 = 0.714	280.64 ± 2.4
273 K, 14532 kPa, x2 = 0.714	287.5 ± 2.4
273 K, 15457 kPa, x2 = 0.714	298.99 ± 2.4
273.01 K, 12511 kPa, x2 = 0.714	252.68 ± 2.2
273.01 K, 14977 kPa, x2 = 0.714	293.17 ± 2.4
273.02 K, 4006 kPa, x2 = 0.714	49.21 ± 0.89
273.02 K, 4495 kPa, x2 = 0.714	57.7 ± 0.95
273.02 K, 5020 kPa, x2 = 0.8197	51.69 ± 0.95
273.03 K, 5418 kPa, x2 = 0.714	73.5 ± 1
273.03 K, 16977 kPa, x2 = 0.714	315.19 ± 2.6
273.03 K, 29571 kPa, x2 = 0.714	387.72 ± 1.5
273.03 K, 30070 kPa, x2 = 0.714	389.49 ± 1.5
273.04 K, 220 kPa, x2 = 0.8197	1.87 ± 0.36
273.04 K, 5526 kPa, x2 = 0.8197	58.55 ± 0.99
273.05 K, 512 kPa, x2 = 0.8197	4.39 ± 0.42
273.05 K, 6060 kPa, x2 = 0.8197	66.2 ± 1
273.05 K, 6535 kPa, x2 = 0.8197	73.36 ± 1
273.05 K, 19490 kPa, x2 = 0.8197	268.43 ± 2.2
273.05 K, 20545 kPa, x2 = 0.8197	276.64 ± 1.8
273.05 K, 27474 kPa, x2 = 0.714	379.67 ± 1.5
273.05 K, 29015 kPa, x2 = 0.714	385.58 ± 1.5
273.06 K, 1024 kPa, x2 = 0.8197	8.86 ± 0.5
273.06 K, 1546 kPa, x2 = 0.8197	13.54 ± 0.58
273.06 K, 1998 kPa, x2 = 0.8197	17.83 ± 0.65
273.06 K, 3515 kPa, x2 = 0.714	41.26 ± 0.84
273.06 K, 4568 kPa, x2 = 0.8197	45.89 ± 0.92
273.06 K, 7007 kPa, x2 = 0.8197	80.78 ± 1.1
273.06 K, 7503 kPa, x2 = 0.8197	88.86 ± 1.1
273.06 K, 19898 kPa, x2 = 0.8197	271.74 ± 2
273.06 K, 27956 kPa, x2 = 0.714	381.54 ± 1.5
273.07 K, 2472 kPa, x2 = 0.8197	22.64 ± 0.71
273.07 K, 2991 kPa, x2 = 0.714	34.29 ± 0.78
273.07 K, 4037 kPa, x2 = 0.8197	39.48 ± 0.87
273.07 K, 19004 kPa, x2 = 0.8197	264.22 ± 2.5
273.07 K, 21088 kPa, x2 = 0.8197	280.47 ± 1.6
273.07 K, 22026 kPa, x2 = 0.8197	286.58 ± 1.4
273.08 K, 3006 kPa, x2 = 0.8197	28.12 ± 0.77
273.08 K, 3496 kPa, x2 = 0.8197	33.34 ± 0.83
273.08 K, 8037 kPa, x2 = 0.8197	97.86 ± 1.2
273.08 K, 17450 kPa, x2 = 0.714	319.61 ± 2.6
273.08 K, 17522 kPa, x2 = 0.8197	249.57 ± 2.4
273.08 K, 18504 kPa, x2 = 0.8197	259.61 ± 2.5
273.08 K, 21490 kPa, x2 = 0.8197	283.16 ± 1.5
273.09 K, 8509 kPa, x2 = 0.8197	106.04 ± 1.2
273.09 K, 8697 kPa, x2 = 0.8197	109.34 ± 1.2
273.09 K, 18521 kPa, x2 = 0.714	328.7 ± 2.7
273.1 K, 18017 kPa, x2 = 0.8197	254.8 ± 2.4
273.1 K, 18931 kPa, x2 = 0.714	331.97 ± 2.8
273.1 K, 22561 kPa, x2 = 0.8197	289.86 ± 1.3
273.1 K, 28471 kPa, x2 = 0.714	383.53 ± 1.5
273.11 K, 9417 kPa, x2 = 0.8197	122.17 ± 1.4
273.11 K, 10159 kPa, x2 = 0.8197	135.6 ± 1.4
273.11 K, 14299 kPa, x2 = 0.8197	207.01 ± 2
273.11 K, 17004 kPa, x2 = 0.8197	243.74 ± 2.3
273.11 K, 17956 kPa, x2 = 0.714	324.07 ± 2.6
273.11 K, 23102 kPa, x2 = 0.8197	293.06 ± 1.3
273.12 K, 23507 kPa, x2 = 0.8197	295.4 ± 1.3
273.13 K, 10896 kPa, x2 = 0.8197	148.97 ± 1.6
273.13 K, 11490 kPa, x2 = 0.8197	159.68 ± 1.7
273.13 K, 12024 kPa, x2 = 0.8197	169.16 ± 1.7
273.13 K, 13513 kPa, x2 = 0.8197	194.52 ± 1.9
273.13 K, 14007 kPa, x2 = 0.8197	202.45 ± 2
273.13 K, 14904 kPa, x2 = 0.8197	216.11 ± 2.1
273.13 K, 15510 kPa, x2 = 0.8197	224.73 ± 2.1
273.13 K, 16041 kPa, x2 = 0.8197	231.85 ± 2.2
273.13 K, 16504 kPa, x2 = 0.8197	237.74 ± 2.2
273.13 K, 24081 kPa, x2 = 0.8197	298.69 ± 1.3
273.13 K, 27492 kPa, x2 = 0.8197	316.71 ± 1.2
273.13 K, 28026 kPa, x2 = 0.8197	319.37 ± 1.2
273.13 K, 28568 kPa, x2 = 0.8197	321.92 ± 1.1
273.13 K, 29088 kPa, x2 = 0.8197	324.13 ± 1.1
273.13 K, 29546 kPa, x2 = 0.8197	325.75 ± 1.1
273.13 K, 29999 kPa, x2 = 0.8197	327.01 ± 1.1
273.14 K, 10580 kPa, x2 = 0.8197	143.25 ± 1.5
273.14 K, 21825 kPa, x2 = 0.714	351.99 ± 1.7
273.14 K, 24511 kPa, x2 = 0.8197	301.13 ± 1.2
273.14 K, 26076 kPa, x2 = 0.8197	309.49 ± 1.2
273.14 K, 26577 kPa, x2 = 0.8197	312.08 ± 1.2
273.14 K, 26982 kPa, x2 = 0.8197	314.11 ± 1.2
273.15 K, 25182 kPa, x2 = 0.8197	304.96 ± 1.2
273.15 K, 25661 kPa, x2 = 0.8197	307.41 ± 1.2
273.16 K, 13305 kPa, x2 = 0.8197	191.11 ± 1.9
